Results from patent publication US20200270309A1, “MALEIMIDE GROUP-MODIFIED ANGIOGENESIS INHIBITOR HM-1 AND USE THEREOF” (NANJING ANJI BIOLOGICAL TECHNOLOGY CO., LTD, priority 2017, published 2020).
Marks after values point to notes of the source that are not given here. Peptide text beside a SMILES is read from it. * marks the point of attachment. X64 = O=C1C=CC(=O)N1c1cccc(CCCCCCCCCC(=O)*)c1; X68 = O=C1C=CC(=O)N1c1ccccc1CCCCCCCCCCCC(=O)*; X60 = O=C1C=CC(=O)N1c1ccccc1CCCCCCCCCC(=O)*; X52 = O=C1C=CC(=O)N1c1ccccc1CCCCCCCC(=O)*; X46 = O=C1C=CC(=O)N1c1cccc(CCCCC(=O)*)c1

Columns and labels:
[1] = tested on: carrageenan-induced toe swelling; assay: Carrageenan-induced toe swelling in rats; format: in vivo; conditions: SD rats; for Swelling degree 1 h: 1 h after carrageenan; for Swelling degree 3 h: 3 h after carrageenan; for Swelling degree 5 h: 5 h after carrageenan; for Swelling degree 7 h: 7 h after carrageenan
Description: The rats were injected once a day, and the model group was given the same volume of normal saline for 3 d and fed normally. […] The foot swelling degree was calculated according to the following formula: foot swelling degree (mL)=foot volume after inflammation-foot volume before inflammation. The number of milliliters of overflow liquid was recorded (method: a ballpoint pen is used to circle the protruding point of the right joint as a measurement mark, and the right hind feet of each rat are sequentially placed into the volume measurer, so that the hind limbs are exposed outside the barrel, and the immersion depth is at the coincidence of the circle and the liquid level. After the foot enters the liquid, the liquid level rises, and the volume of overflow liquid is the volume of the right hind foot of the rat, and the normal volume of the right hind foot of each rat is measured in sequence).

[2] = tested on: xylene-induced ear swelling; assay: Xylene-induced mouse ear swelling; format: in vivo; conditions: Kunming mice, injected once a day for 5 days; for Swelling degree (mg) / Swelling degree: right minus left ear piece weight 2 h after xylene; for Inhibition rate (%): xylene-induced ear swelling
Description: Kunming mice were taken, a normal saline group was taken as a blank control group, an aspirin group (200 mg/kg) was taken as a positive control group, and X1-X90 administration groups were taken as test groups. The mice were injected once a day for 5 consecutive days. The blank control group was given an equal volume of normal saline. One hour after the last administration, 0.05 mL of xylene was applied to both sides of the right ear of each mouse to cause inflammation, while no drug was applied to the left ear as a normal ear. Two hours later, the mice were put to death by dislocation. Two ears were cut along the auricle. Ear pieces were taken with a puncher and weighed, and the swelling degree and the swelling rate were calculated. Swelling degree=right ear piece weight-left ear piece weight, swelling rate=(swelling degree/left ear piece weight)*100%. Statistical t-test was conducted on the experimental results. *P<0.05 indicates significant difference, and **P<0.01 indicates extremely significant difference.

splenic lymphocytes = assay: Proliferation of splenic lymphocytes in mice (ConA, MTT); format: cell-based; conditions: ConA-stimulated mouse splenic lymphocytes, 48 h
Description: Spleens of mice were taken out under aseptic conditions, washed with blank 1640 culture medium 3 times, ground with a 5 mL syringe core, filtered with a 200-mesh sieve, made into a single cell suspension. The suspension was centrifuged (1000 rpm×5 min), and supernatant was removed. Red blood cells were lysed by Tris-NH4Cl, and placed in ice water bath for 4 min and centrifuged (1000 rpm×5 min). The supernatant was removed, and the cells were washed twice with sterile PBS. Finally, RPMI 1640 culture solution (5 mL) containing 10% calf serum was added to suspend the cells. The cells were counted and the cell concentration was adjusted to 5×10^6 cells/mL, and the cells were cultured in a 96-well culture plate.
Blank control group, concanavalin A (ConA) group and dexamethasone (Dex) group were set in the experiment, and polypeptide X1-X90 groups were set as test groups. After 100 μL of splenic lymphocytes suspension per well was added into each group, 100 μL of blank 1640 culture solution was added into the blank control group, ConA was added into the ConA group, Dex was added into the Dex group, and ConA was added into the test groups on the basis of adding different concentrations of polypeptides X1-X90. The cells were static cultured at 37° C. in a cell incubator for 48 h. After the cultivation was completed, 20 μL of MTT was added to each well, and the cultivation was continued for 4 h. Finally, all the solutions in each well were discarded. 100 μL DMSO was added to each well and shaken, and the OD value at 570 nm was detected with a microplate reader. Five parallel experiments were set in each well.

[3] = Half-lives and pharmacokinetic parameters of polypeptides vs HM-1; conditions: in vivo; for half-life: T1/2β (half-life)
[4] = tested on: corneal neovascularization; assay: Corneal neovascularization induced by alkali burn in BALB/c mice; format: in vivo; set-up: Inhibition rate (corneal neovascularization): concentration or dose not given beside the values; conditions: day 14 after alkali burn, vitreous injection once a day for 1 week

Compound	Swelling degree 1 h ([1]; 2.0 mg/kg once a day for 3 d)	Swelling degree 3 h ([1]; 2.0 mg/kg once a day for 3 d)	Swelling degree 5 h ([1]; 2.0 mg/kg once a day for 3 d)	Swelling degree 7 h ([1]; 2.0 mg/kg once a day for 3 d)	Swelling degree 1 h ([1]; 4.0 mg/kg once a day for 3 d)	Swelling degree 3 h ([1]; 4.0 mg/kg once a day for 3 d)	Swelling degree 5 h ([1]; 4.0 mg/kg once a day for 3 d)	Swelling degree 7 h ([1]; 4.0 mg/kg once a day for 3 d)	Inhibition rate (%) ([2]; dose 2 mg/kg)	Inhibition rate (%) ([2]; dose 4 mg/kg)	Swelling degree (mg) ([2]; dose 8 mg/kg)	Inhibition rate (%) ([2]; dose 8 mg/kg)	A570 nm/A630 nm (splenic lymphocytes; polypeptide dose 0.05 μM)	Inhibition rate (%) (splenic lymphocytes; polypeptide dose 0.05 μM)	A570 nm/A630 nm (splenic lymphocytes; polypeptide dose 0.1 μM)	Inhibition rate (%) (splenic lymphocytes; polypeptide dose 0.1 μM)	A570 nm/A630 nm (splenic lymphocytes; polypeptide dose 0.2 μM)	Inhibition rate (%) (splenic lymphocytes; polypeptide dose 0.2 μM)	AUC(0-inf) [3]	MRT inf [3]	also measured
C[C@H](NC(=O)CNC(=O)[C@H](CCCNC(=N)N)NC(=O)CCCCCCCc1ccccc1N1C(=O)C=CC1=O)C(=O)N[C@@H](CC(=O)O)C(=O)N[C@@H](CCCNC(=N)N)C(=O)N[C@@H](C)C(=O)NCC(=O)NCC(=O)NCC(=O)NCC(=O)N[C@@H](CCCNC(=N)N)C(=O)NCC(=O)N[C@@H](CC(=O)O)C(=O)O [X19] (X52-RGADRAGGGGRGD-OH)	0.21 ± 0.13 mg	0.33 ± 0.15 mg	0.36 ± 0.17 mg	0.32 ± 0.12 mg	0.26 ± 0.11 mg	0.38 ± 0.17 mg	0.42 ± 0.15 mg	0.32 ± 0.18 mg	20.06%	36.28%	3.8 ± 0.03** mg	39.00%	0.5093 ± 0.0372	24.59%	0.5027 ± 0.0814	25.57%	0.4978 ± 0.0481	26.30%	32200 ± 6970 ng·h/mL	57.6 ± 10.8 h	Swelling degree (mg) ([2]; dose 2 mg/kg): 4.98 ± 0.72* mg; Swelling degree (mg) ([2]; dose 4 mg/kg): 3.97 ± 0.61** mg; clearance [3]: 0.518 mL/min/kg; half-life [3]: 39.95 ± 0.28 h; Inhibition rate (corneal neovascularization) [4]: 41.43%; MVD (corneal microvessel density) [4]: 39.38 ± 4.833
C[C@H](NC(=O)CNC(=O)[C@H](CCCNC(=N)N)NC(=O)CCCCCCCCCc1ccccc1N1C(=O)C=CC1=O)C(=O)N[C@@H](CC(=O)O)C(=O)N[C@@H](CCCNC(=N)N)C(=O)N[C@@H](C)C(=O)NCC(=O)NCC(=O)NCC(=O)NCC(=O)N[C@@H](CCCNC(=N)N)C(=O)NCC(=O)N[C@@H](CC(=O)O)C(=O)O [X21] (X60-RGADRAGGGGRGD-OH)	0.23 ± 0.19 mg	0.32 ± 0.17 mg	0.39 ± 0.16 mg	0.33 ± 0.12 mg	0.25 ± 0.17 mg	0.33 ± 0.13 mg	0.39 ± 0.14 mg	0.35 ± 0.18 mg	13.48%	20.22%	3.15 ± 0.42** mg	49.44%	0.5904 ± 0.0399	12.59%	0.5776 ± 0.1193	14.48%	0.4947 ± 0.1055	26.75%	34000 ± 8190 ng·h/mL	60.9 ± 9.41 h	Swelling degree ([2]; dose 2 mg/kg): 5.39 ± 0.39 mg; Swelling degree (mg) ([2]; dose 4 mg/kg): 4.97 ± 0.14* mg; clearance [3]: 0.49 mL/min/kg; half-life [3]: 42.24 ± 0.28 h; Inhibition rate (corneal neovascularization) [4]: 45.93%; MVD (corneal microvessel density) [4]: 36.36 ± 3.663
C[C@H](NC(=O)CNC(=O)[C@H](CCCNC(=N)N)NC(=O)CCCCCCCCCCCc1ccccc1N1C(=O)C=CC1=O)C(=O)N[C@@H](CC(=O)O)C(=O)N[C@@H](CCCNC(=N)N)C(=O)N[C@@H](C)C(=O)NCC(=O)NCC(=O)NCC(=O)NCC(=O)N[C@@H](CCCNC(=N)N)C(=O)NCC(=O)N[C@@H](CC(=O)O)C(=O)O [X23] (X68-RGADRAGGGGRGD-OH)	0.28 ± 0.17 mg	0.34 ± 0.19 mg	0.37 ± 0.11 mg	0.35 ± 0.18 mg	0.26 ± 0.16 mg	0.34 ± 0.19 mg	0.38 ± 0.13 mg	0.34 ± 0.17 mg	9.47%	41.73%	3.47 ± 0.06** mg	44.30%	0.5946 ± 0.0378	11.96%	0.4982 ± 0.1212	26.24%	0.4363 ± 0.0933	35.40%	25600 ± 8510 ng·h/mL	45.8 ± 10.6 h	Swelling degree ([2]; dose 2 mg/kg): 5.64 ± 0.84 mg; Swelling degree (mg) ([2]; dose 4 mg/kg): 3.63 ± 0.51** mg; clearance [3]: 0.652 mL/min/kg; half-life [3]: 31.72 ± 0.25 h; Inhibition rate (corneal neovascularization) [4]: 46.95%; MVD (corneal microvessel density) [4]: 35.67 ± 6.861
C[C@H](NC(=O)CNC(=O)[C@H](CCCNC(=N)N)NC(=O)CCCCc1cccc(N2C(=O)C=CC2=O)c1)C(=O)N[C@@H](CC(=O)O)C(=O)N[C@@H](CCCNC(=N)N)C(=O)N[C@@H](C)C(=O)NCC(=O)NCC(=O)NCC(=O)NCC(=O)N[C@@H](CCCNC(=N)N)C(=O)NCC(=O)N[C@@H](CC(=O)O)C(=O)O [X28] (X46-RGADRAGGGGRGD-OH)	0.29 ± 0.13 mg	0.35 ± 0.15 mg	0.45 ± 0.17 mg	0.36 ± 0.14 mg	0.28 ± 0.15 mg	0.34 ± 0.11 mg	0.37 ± 0.17 mg	0.35 ± 0.18 mg	33.87%	15.73%	4.12 ± 0.93* mg	21.99%	0.5765 ± 0.0594	14.64%	0.5541 ± 0.0486	17.96%	0.5087 ± 0.0793	24.68%	25100 ± 7920 ng·h/mL	45 ± 13 h	Swelling degree (mg) ([2]; dose 2 mg/kg): 5.25 ± 0.56** mg; Swelling degree ([2]; dose 4 mg/kg): 4.86 ± 0.63 mg; clearance [3]: 0.663 mL/min/kg; half-life [3]: 31.19 ± 0.26 h; Inhibition rate (corneal neovascularization) [4]: 46.59%; MVD (corneal microvessel density) [4]: 35.91 ± 4.891
C[C@H](NC(=O)CNC(=O)[C@H](CCCNC(=N)N)NC(=O)CCCCCCCCCc1cccc(N2C(=O)C=CC2=O)c1)C(=O)N[C@@H](CC(=O)O)C(=O)N[C@@H](CCCNC(=N)N)C(=O)N[C@@H](C)C(=O)NCC(=O)NCC(=O)NCC(=O)NCC(=O)N[C@@H](CCCNC(=N)N)C(=O)NCC(=O)N[C@@H](CC(=O)O)C(=O)O [X33] (X64-RGADRAGGGGRGD-OH)	0.22 ± 0.13 mg	0.37 ± 0.11 mg	0.42 ± 0.17 mg	0.35 ± 0.13 mg	0.25 ± 0.14 mg	0.31 ± 0.13 mg	0.44 ± 0.19 mg	0.33 ± 0.18 mg	17.34%	29.21%	4.41 ± 0.9** mg	48.31%	0.5669 ± 0.1137	16.06%	0.5297 ± 0.0479	21.57%	0.4492 ± 0.1069	33.49%	34000 ± 7620 ng·h/mL	60.8 ± 12 h	Swelling degree ([2]; dose 2 mg/kg): 3.22 ± 0.59 mg; Swelling degree (mg) ([2]; dose 4 mg/kg): 5.15 ± 0.19* mg; clearance [3]: 0.49 mL/min/kg; half-life [3]: 42.15 ± 0.26 h; Inhibition rate (corneal neovascularization) [4]: 47.20%; MVD (corneal microvessel density) [4]: 35.50 ± 3.223
